The values that follow come from patent US9790545B2, “Method for determining the neurodevelopmental toxicity of a compound in vitro” (UNIVERSITEIT MAASTRICHT, priority 2012, dated 2017).

Read-outs that look alike come from different tables or passages of the source.

Data set [1] has as its system neural outgrowth of embryoid bodies from murine embryonic stem cells (ES-D3). In words: Golden standard classification of neurodevelopmental toxicity (morphological scoring of neural outgrowth). The settings on record: for Golden standard: tox / nontox at the concentration coded in the label (Table 3); for Neuro-developmentally toxic: yes / no at the concentration (μM) given in Table 3.

The next data set relates to Hoxb6. Description: Relative gene expression in neural differentiation culture of murine embryonic stem cells (ES-D3), microarray. The conditions noted are these: exposed from day 3, harvested day 4 (24 h exposure), ratio to reference value, concentration coded in label (L low, H high, Table 3).
The subject of the next data set is Nrk. The data set is described as above. The conditions noted are these: exposed from day 3, harvested day 4 (24 h exposure), ratio to reference value, concentration coded in label (L low, H high, Table 3).
The next data set concerns 1700011H14Rik. Described as above. The conditions noted are these: exposed from day 3, harvested day 4 (24 h exposure), ratio to reference value, concentration coded in label (L low, H high, Table 3).
The subject of another data set is Tph1. The data set is described as above. The settings on record: exposed from day 3, harvested day 4 (24 h exposure), ratio to reference value, concentration coded in label (L low, H high, Table 3).
Data set [2] relates to neural outgrowth of embryoid bodies from murine embryonic stem cells (ES-D3).

As for `CCCC(CCC)C(=O)O` [VpaL, Valproic acid], the Golden standard entry in data set [1] is given as “nontox”; in data set [1] (listed as VpaH), “tox”. Also, the Neuro-developmentally toxic entry is reported as “no” in data set [1] and “yes” in data set [1] (listed as vpaH). Besides, the figures for the “relative expression value Hoxb6” value with Hoxb6 and in the data set on Hoxb6 (listed as VpaH) were 0.807 and 0.721, respectively. Also, the figures for the “relative expression value Nrk” value in the data set with Nrk and with Nrk (listed as VpaH) were 0.914 and 1.518, respectively. For the same compound, the “relative expression value 1700011H14Rik” value in the data set on 1700011H14Rik is listed as 0.962; in the data set on 1700011H14Rik (listed as VpaH) it was 0.316. The “relative expression value Tph1” value in the data set with Tph1 is reported as 0.944; with Tph1 (listed as VpaH), 1.130.
Consider `CC=O` [aceL, Acetaldehyde], for which the figures for the Golden standard result in data set [1] and in data set [1] (listed as aceH) were “nontox” and “tox”, respectively. Besides, the Neuro-developmentally toxic entry is on record as “no” in data set [1] and “yes” in data set [1] (listed as aceH). The “relative expression value Hoxb6” value in the data set on Hoxb6 stood at 0.917; in the data set on Hoxb6 (listed as aceH), 1.100. Moreover, the entries for the “relative expression value Nrk” value in the data set with Nrk and with Nrk (listed as aceH) were 0.909 and 1.290, respectively. For the same compound, the entries for the “relative expression value 1700011H14Rik” value with 1700011H14Rik and with 1700011H14Rik (listed as aceH) were 1.175 and 0.562, respectively. The “relative expression value Tph1” value is on record as 0.891 in the data set with Tph1 and 1.094 with Tph1 (listed as aceH).
In the case of `NC(=O)N1c2ccccc2C=Cc2ccccc21` [cbzL, Carbamazepine], the Golden standard result is on record as “nontox” in data set [1] and “tox” in data set [1] (listed as cbzH). The Neuro-developmentally toxic result in data set [1] was “no”; in data set [1] (listed as cbzH) it was “yes”. The “relative expression value Hoxb6” value is 0.991 in the data set on Hoxb6 and 0.950 with Hoxb6 (listed as cbzH). Further, the entries for the “relative expression value Nrk” value in the data set with Nrk and in the data set on Nrk (listed as cbzH) were 1.055 and 1.217, respectively. For the same compound, the “relative expression value 1700011H14Rik” value with 1700011H14Rik is 0.870; with 1700011H14Rik (listed as cbzH), 0.533. Further, the figures for the “relative expression value Tph1” value in the data set on Tph1 and with Tph1 (listed as cbzH) were 0.945 and 0.751, respectively.
Regarding `CC1(C)S[C@@H]2[C@H](NC(=O)Cc3ccccc3)C(=O)N2[C@H]1C(=O)[O-].[Na+]` [pengL, Penicillin G], in data set [1], the Golden standard result was “nontox” and the Neuro-developmentally toxic result is “no”.
Turning to Methylmercury chloride [mehgH], in data set [1], the Golden standard result is given as “tox” and the Neuro-developmentally toxic entry was “yes”. The “relative expression value Hoxb6” value with Hoxb6 is on record as 1.302. Also, in the data set with Nrk, the “relative expression value Nrk” value is given as 0.719. The “relative expression value 1700011H14Rik” value with 1700011H14Rik amounted to 1.665. The “relative expression value Tph1” value in the data set on Tph1 came out at 1.116.
Regarding `O=C1NC(=O)C(c2ccccc2)(c2ccccc2)N1` [pheL, Phenytoin], the values for the Golden standard entry in data set [1] and in data set [1] (listed as pheH) were “nontox” and “tox”, respectively. In addition, the Neuro-developmentally toxic entry in data set [1] is given as “no”; in data set [1] (listed as pheH), “yes”. Besides, the “relative expression value Hoxb6” value in the data set with Hoxb6 was found to be 0.839; in the data set on Hoxb6 (listed as pheH), 0.840. For the same compound, the “relative expression value Nrk” value turned out to be 0.766 in the data set on Nrk and 0.781 in the data set with Nrk (listed as pheH). Besides, the “relative expression value 1700011H14Rik” value with 1700011H14Rik was determined as 1.146; with 1700011H14Rik (listed as pheH), 0.995. In addition, the “relative expression value Tph1” value is listed as 0.817 in the data set on Tph1 and 0.781 with Tph1 (listed as pheH).
On to `CCCCC(O)(Cn1cncn1)c1ccc(Cl)cc1Cl` (stereo not shown) [hexL, Hexaconazole], for which, in data set [2], the Golden standard entry was “nontox” and the Neuro-developmentally toxic result is “no”.
